Data on two substances can be found in US4990498A, “2- and 8-azido(2'-5')oligoadenylates and antiviral uses thereof” (Temple University-of the Commonwealth System of Higher …, priority 1988, dated 1991).

Assay [1] deals with RNase L. The assay is described as follows: rRNA cleavage assay: activation of RNase L in L929 cell extracts. The class given is biochemical, murine. To be noted: for final concentration at which RNase L is activated to degrade rRNA to specific cleavage products / concentration dependence of rRNA degradation / potency in rRNA degradation relative to authentic p3 A3: L929 cell extracts; for final concentration at which RNase L is activated to degrade rRNA to specific cleavage products: "as low as"; for concentration dependence of rRNA degradation / potency in rRNA degradation relative to authentic p3 A3 / biological activity (RNase L binding and activation) relative to authentic 2-5A: in words. The protocol:
FIG. 2 represents a rRNA cleavage assay with 2-azido-p3 A3 and 8-azido-p3 A3 L929 cell extracts were incubated in the absence (lane 4) or presence of p3 A3 (lane 1), 2-azido-p3 A3 (lane 2), or 8-azido-p3 A3 (lane 3) at 1 x 10^-8 M final concentrations. The positions of 28S and 18S rRNA, and the positions of RNase L specific cleavage products ("SCP"), are indicated.
Activation of RNase L by the compounds of the invention was also measured in a ribosomal RNA cleavage assay using L929 cell extracts. The extracts were prepared in glycerol buffer in 15 microliters final volume as described by Kariko et al., Biochem. Biophys. Res. Commun. 128:695-698 (1985).

Assay [2] concerns 2-5A binding proteins from L929 cells (believed to be forms of RNase L). Put plainly: Photoaffinity labelling / covalent cross-linking of 2-5A binding proteins in interferon-treated L929 cell extracts (SDS-PAGE, autoradiography). More on the design: species or system murine. The settings on record: for UV exposure time for maximal photo-crosslinking: 254 nm, 0° C.; for molecular weight of protein(s) specifically photolabelled / cross-linked: L929 cell extracts; for molecular weight of protein(s) specifically photolabelled / cross-linked / number of proteins photolabelled / cross-linked: 60 s UV; for number of proteins photolabelled / cross-linked: interferon-treated L929 cell extracts. The protocol: FIG. 3A is an autoradiogram following SDS-PAGE of interferon-treated L929 cell extracts incubated with [gamma-^32 P]2-azido-p3 A3 at 1×10^-6 M in the absence (lane 1) or presence of p3A3 at 1×10^-5 M and 1×10^-4 M (lanes 2 and 3, respectively).The samples were UV-irradiated for 60 seconds at 0° C. prior to electrophoresis. Photolabelled proteins were detected by autoradiography. Molecular weight standards are indicated.
FIG. 4A is an autoradiogram following SDS-PAGE of interferon treated L929 cell extracts incubated with [alpha-^32 P]8-azido-p3 A3 at 1×10^-6 M in the absence (lanes 1 and 2) or presence of the following: p3 A3 at 1×10^-4 M (lane 3); p3 A3 at 5×10^-4 M (lane 4); or 3'-5'A3 at 5×10^-4 M (lane 5). The samples were UV irradiated (lanes 2-6) for 60 seconds at 0° C. prior to electrophoresis. Under identical experimental conditions, the L929 cell extract was incubated with p3 A4 [^32 P]pCp at 1×10^-8 M (lane 6). Photolabelled proteins were detected by autoradiography.
Ten microliters of L929 cell extracts (100 micrograms protein/assay) were combined with 10 microliters of a buffer (140 mM NaCl, 35 mM Tris-HCl, pH 7.5) and were incubated in the presence of 1×10^-6 M [gamma-^32 p]2-azido -p3 A3 (0.9 microCi/nmol) or 1×10^-6 M [alpha-^32 p]8-azido -p3 A3 (0.9 microCi/nmol) or 1×10^-9 M p3 A4 [^32 P]pCp (3 mCi/nmol) in a 30 microliter final volume. The samples, after incubation in microcentrifuge tubes at 0° C. for 90 minutes, were transferred into ice-mold porcelain spot plates and photolysed for 60 seconds using a 254 nm UVG-11 Mineralight lamp (Ultraviolet Products, Inc.) at a distance of 2 cm (1.0 J/m^2). Sixty microliters of a reductive, protein-solubilizing mixture (15.4 mg/ml dithiothreitol, 25% w/v sucrose, 2.5% sodium dodecylsulfate, 25 mM TrisHCl, pH 8.0, 0.0025% pyronine Y) were added to the samples. Photo-incorporation of the ^32 P-labeled 2-azido-p3 A3 and 8-azido-p3 A3 into the L929 protein was determined by SDS-PAGE (Lamelli, Nature (London) 227:680-685 (1970)). The SDS-PAGE gels were stained with Coomassie blue, dried and subject to autoradiography at -70° C. with X-Omat film (Kodak).

Assay [3] deals with RNase L. Put plainly: Core-cellulose assay: activation of partially purified RNase L to hydrolyze poly(U)[^32 P]pCp. To be noted: in words. The class given is biochemical, murine. The source says:
The recently developed core cellulose assay of Silverman, Anal. Biochem. 144:450-460 (1985), which involves the immobilization and partial purification of RNase L on 2-5A core-cellulose, was used to measure the ability of 8-azido-p3 A3 to activate RNase L. For this purpose, poly(U)[^32 P]pCp was synthesized from poly(U) using T4 RNA ligase, as described by Silverman. 8-Azido-p3 A3 (solid circle data

The test system of assay [4] is RNase L. Put plainly: Radiobinding assay: competition with p3 A4 [^32 P]pCp for binding to RNase L in L929 cell extracts. More on the design: species or system murine. The settings on record: in words. The protocol: RNase L was obtained from L929 cells by the following procedure. The L929 cells were maintained in monolayer culture in Dulbecco's modified Eagle medium supplemented with 5% bovine serum. Monolayers were tested with 200 units/ml of mouse interferon for 20 hours. Cell extracts of the L929 cells were prepared by collecting the cells by trypsinization, washing them once with phosphate-buffered saline and lysing the cells in NP40 buffer according to the method of Silverman, et al., Eur. J. Biochem. 124:131-138 (1982).
The ability of 8-azido-p3 A3 to compete with p3 A4 -[^32 P]pCp for binding to RNase L in the L929 cell extracts was compared to p3 A3 using radiobinding assays (50 micrograms of protein/assay) according to the method of Knight et al., Methods Enzymol. 79:216-227 (1981). […] 8-Azido-p3 A3 (FIG. 1A, solid circle data points) binds to RNase L with an IC50 of 2×10^-9 M, which is equivalent to the IC50 of authentic p3 A3 (FIG. 1A, solid triangle data points).

For assay [5], the system named is RNase L. Put plainly: rRNA cleavage assay with photolabelled RNase L/8-azido-p3 A3 complex. The class given is biochemical, murine. To be noted: 1×10^-6 M 8-azido-p3 A3, 60 s UV 254 nm; in words. The protocol: Ten microliters of L929 cell extract (100 microgram protein/assay) were combined with ten microliters buffer (140 mM NaCl, 35 mM Tris-HCl, pH 7.5) and were incubated in the presence of 1×10^-6 M 8-azido-p3 A3 in a 30 microliter final volume. The sample was transferred to ice-cold porcelain spot plates and photolysed for 60 second using a 254 nm UVG-11 Mineralight lamp at a distance of 2 cm (1.0 J/m^2) to photolabel the RNase L/8-azido-p3 A3 complex. A ribosomal RNA cleavage assay was performed as described above, but using the photolabelled complex.

Take “5'-0-triphosphoryl-(2-azidoadenylyl)(2'-5')2-azidoadenylyl(2'5')2-azidoadenosine [2-azido-p3 A3]”: in assay [1], the “final concentration at which RNase L is activated to degrade rRNA to specific cleavage products” value is 10^-9 M; the “concentration dependence of rRNA degradation” value is “concentration dependent”; the “potency in rRNA degradation relative to authentic p3 A3” value is given as “as potent as authentic p3 A3”; the “biological activity (RNase L binding and activation) relative to authentic 2-5A” value is “almost identical to that of authentic 2-5A”. For the same substance, the “size of photolabelled protein” value in assay [2] (1×10^-6 M [gamma-^32 P]2-azido-p3 A3, 60 s UV, protein a) is 185,000 dalton. For the same substance, in assay [2], the “UV exposure time for maximal photo-crosslinking” value was 60 s, the “molecular weight of protein(s) specifically photolabelled / cross-linked” value was 185,000 and the “number of proteins photolabelled / cross-linked” value was “one”.

Take “5'-0-triphosphoryl-(8-azidoadenylyl)(2'-5')8-azidoadenylyl(2'-5')8-azidoadenosine [8-azido-p3 A3]”: the “potency in activating RNase L relative to authentic p3 A3” value in assay [3] is on record as “equipotent to authentic p3 A3”. In assay [1], the “final concentration at which RNase L is activated to degrade rRNA to specific cleavage products” value is 10^-9 M; the “concentration dependence of rRNA degradation” value is on record as “concentration dependent”; the “potency in rRNA degradation relative to authentic p3 A3” value was “as potent as authentic p3 A3”; the “biological activity (RNase L binding and activation) relative to authentic 2-5A” value is on record as “almost identical to that of authentic 2-5A”. Also, in assay [2], the “UV exposure time for maximal photo-crosslinking” value was found to be 60 s, the “molecular weight of protein(s) specifically photolabelled / cross-linked” value was 46,000-158,000 and the “number of proteins photolabelled / cross-linked” value is reported as “six”. Besides, the “inhibition of p3 A4 [^32 P]pCp binding to RNase L” value in assay [4] is “inhibited p3 A4 [^32 P]pCp binding to RNase L in a concentration dependent manner”. Also, the “rRNA cleavage by RNase L after photolabelling” value in assay [5] was “observed to cleave 18S and 28S rRNA to the same specific cleavage products characteristic of RNase L activation by 8-azido-p3 A3 without photoactivation”.
